Measured values published in the supplement of paper PMC10307832.

Columns and labels:
Assay in all cases: relative viability (nuclei count vs DMSO), 5 days (fraction); higher = more cells survive
Pictilisib + Luminespib = compound: CS(=O)(=O)N1CCN(Cc2cc3nc(-c4cccc5[nH]ncc45)nc(N4CCOCC4)c3s2)CC1 [Pictilisib] + CCNC(=O)c1noc(-c2cc(C(C)C)c(O)cc2O)c1-c1ccc(CN2CCOCC2)cc1 [Luminespib] (partner 0.01 µM)
Summary of the method: (§1)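 One day after seeding in 1536-well plates, lung cancer cell lines were dosed by pin tool. Dosing was either single-drug or a fixed anchor-drug dose plus five library-drug doses (not always all listed) in √10 steps. After 5 days, nuclei were stained in one fix-and-stain step and counted on 4× images, and relative viability is the nuclei count of treated wells over that of vehicle wells, given as the median of duplicate plates.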

MK-2206 + Foretinib = compound: NC1(c2ccc(-c3nc4ccn5c(=O)[nH]nc5c4cc3-c3ccccc3)cc2)CCC1 [MK-2206] + COc1cc2c(Oc3ccc(NC(=O)C4(C(=O)Nc5ccc(F)cc5)CC4)cc3F)ccnc2cc1OCCCN1CCOCC1 [Foretinib] (partner 0.25 µM)
Summary of the method: as §1

MK-2206 + Lapatinib = compound: NC1(c2ccc(-c3nc4ccn5c(=O)[nH]nc5c4cc3-c3ccccc3)cc2)CCC1 [MK-2206] + CS(=O)(=O)CCNCc1ccc(-c2ccc3ncnc(Nc4ccc(OCc5cccc(F)c5)c(Cl)c4)c3c2)o1 [Lapatinib] (partner 2 µM)
Summary of the method: as §1

MK-2206 + Vorinostat = compound: NC1(c2ccc(-c3nc4ccn5c(=O)[nH]nc5c4cc3-c3ccccc3)cc2)CCC1 [MK-2206] + O=C(CCCCCCC(=O)Nc1ccccc1)NO [Vorinostat] (partner 1 µM)
Summary of the method: as §1

MK-2206 + Olaparib = compound: NC1(c2ccc(-c3nc4ccn5c(=O)[nH]nc5c4cc3-c3ccccc3)cc2)CCC1 [MK-2206] + O=C(c1cc(Cc2n[nH]c(=O)c3ccccc23)ccc1F)N1CCN(C(=O)C2CC2)CC1 [Olaparib] (partner 8 µM)
Summary of the method: as §1

| Cell Line | relative viability (Pictilisib + Luminespib; first compound 0.02 µM) | relative viability (Pictilisib + Luminespib; first compound 0.06325 µM) | relative viability (Pictilisib + Luminespib; first compound 0.6325 µM) | relative viability (Pictilisib + Luminespib; first compound 2 µM) | relative viability (MK-2206 + Foretinib; first compound 0.01 µM) | relative viability (MK-2206 + Foretinib; first compound 0.03162 µM) | relative viability (MK-2206 + Foretinib; first compound 0.3162 µM) | relative viability (MK-2206 + Foretinib; first compound 1 µM) | relative viability (MK-2206 + Lapatinib; first compound 0.01 µM) | relative viability (MK-2206 + Lapatinib; first compound 0.03162 µM) | relative viability (MK-2206 + Lapatinib; first compound 0.3162 µM) | relative viability (MK-2206 + Lapatinib; first compound 1 µM) | relative viability (MK-2206 + Vorinostat; first compound 0.01 µM) | relative viability (MK-2206 + Vorinostat; first compound 0.03162 µM) | relative viability (MK-2206 + Vorinostat; first compound 0.3162 µM) | relative viability (MK-2206 + Vorinostat; first compound 1 µM) | relative viability (MK-2206 + Olaparib; first compound 0.01 µM) | relative viability (MK-2206 + Olaparib; first compound 0.03162 µM) | relative viability (MK-2206 + Olaparib; first compound 0.3162 µM) | relative viability (MK-2206 + Olaparib; first compound 1 µM) |
| --- | --- | --- | --- | --- | --- | --- | --- | --- | --- | --- | --- | --- | --- | --- | --- | --- | --- | --- | --- | --- |
| HCC-827 | 1.01 | 0.472 | 0.224 | 0.152 | 1.13 | 1.05 | 0.945 | 0.984 | 0.173 | 0.193 | 0.205 | 0.179 | 0.791 | 0.847 | 0.816 | 0.323 | 0.671 | 0.678 | 0.506 | 0.523 |
| NCI-H1755 | 0.412 | 0.384 | 0.305 | 0.189 | 0.929 | 0.986 | 0.816 | 0.823 | 1.02 | 1.05 | 0.965 | 0.962 | 0.774 | 0.698 | 0.582 | 0.636 | 0.875 | 0.929 | 0.901 | 0.825 |
| NCI-H661 | 0.969 | 0.938 | 0.953 | 0.813 | 1.01 | 1.09 | 1.01 | 0.986 | 0.422 | 0.581 | 0.503 | 0.51 | 0.759 | 0.737 | 0.767 | 0.681 | 0.768 | 0.751 | 0.763 | 0.738 |
| NCI-H1944 | 0.768 | 0.46 | 0.498 | 0.239 | 0.889 | 1 | 0.887 | 0.829 | 0.829 | 0.849 | 0.823 | 0.904 | 0.536 | 0.547 | 0.556 | 0.433 | 0.388 | 0.439 | 0.429 | 0.478 |
| NCI-H23 | 0.203 | 0.219 | 0.198 | 0.203 | 1.1 | 1.11 | 1.05 | 0.902 | 0.982 | 0.98 | 1.16 | 1.1 | 0.6 | 0.508 | 0.569 | 0.372 | 0.302 | 0.326 | 0.255 | 0.285 |
| NCI-H1648 | – | – | – | – | – | – | – | – | – | – | – | – | 0.475 | 0.422 | 0.445 | 0.432 | 1.01 | 1.11 | 0.966 | 0.769 |
| NCI-H522 | 1.01 | 0.939 | 0.894 | 0.788 | – | – | – | – | – | – | – | – | 1.07 | 1.02 | 0.828 | 0.836 | 0.668 | 0.624 | 0.629 | 0.666 |
| HCC-366 | – | – | – | – | 0.924 | 1.03 | 0.869 | 0.975 | 1.05 | 1.09 | 1.08 | 1.16 | 0.341 | 0.448 | 0.26 | 0.254 | 0.367 | 0.472 | 0.328 | 0.322 |
| EBC-1 | – | – | – | – | 0.0881 | 0.12 | 0.117 | 0.106 | 0.217 | 0.2 | 0.174 | 0.224 | – | – | – | – | 0.362 | 0.685 | 0.484 | 0.175 |
| ChaGo-K-1 | 0.663 | 0.63 | 0.502 | 0.499 | 0.969 | 0.974 | 0.922 | 0.93 | – | – | – | – | 0.754 | 0.856 | 0.763 | 0.702 | 0.404 | 0.422 | 0.413 | 0.429 |
| NCI-H1299 | – | – | – | – | 1.15 | 1.06 | 1.15 | 1.16 | 0.963 | 0.946 | 1 | 1.02 | – | – | – | – | 0.967 | 1.04 | 1.05 | 1.02 |
| NCI-H1623 | 0.452 | 0.455 | 0.379 | 0.303 | 0.844 | 0.958 | 0.795 | 0.832 | – | – | – | – | – | – | – | – | – | – | – | – |
| NCI-H441 | 0.307 | 0.236 | 0.269 | 0.221 | 0.923 | 1.03 | 0.59 | 0.822 | – | – | – | – | 0.76 | 0.707 | 0.701 | 0.565 | 0.588 | 0.622 | 0.541 | 0.338 |
| LCLC-103H | 0.989 | 0.903 | 0.606 | 0.438 | 0.867 | 0.792 | 0.669 | 0.698 | – | – | – | – | 0.764 | 0.827 | 0.701 | 0.743 | 0.548 | 0.768 | 0.777 | 0.731 |
| HCC-44 | 1.11 | 1.01 | 0.54 | 0.344 | – | – | – | – | 1.01 | 1.01 | 1.05 | 1.07 | 1.07 | 1.1 | 1.12 | 1.07 | 1.06 | 1 | 1.04 | 0.97 |
| IA-LM | – | – | – | – | 1.06 | 1.11 | 1.07 | 1.19 | – | 0.765 | 0.695 | 0.438 | 0.935 | 1.11 | 1.02 | 1.02 | 0.869 | 0.791 | 0.993 | 0.781 |
| A549 | – | – | – | – | 0.752 | 0.817 | 0.914 | 0.907 | 0.874 | 0.988 | 0.932 | 0.81 | – | – | – | – | 0.389 | 0.439 | 0.333 | 0.125 |
| NCI-H1563 | 0.44 | 0.513 | 0.497 | 0.468 | 0.882 | 0.988 | 0.832 | 0.769 | 0.843 | 0.911 | 0.783 | 0.711 | – | – | – | – | – | – | – | – |
| Calu-6 | – | – | – | – | 0.939 | 0.99 | 0.837 | 0.937 | 1.05 | 1.13 | 1.09 | 0.974 | – | – | – | – | – | 0.592 | 0.653 | 0.614 |
| HCC-78 | – | – | – | – | 0.557 | – | 0.496 | 0.459 | 0.703 | 0.376 | 0.88 | 0.703 | 0.439 | 0.504 | 0.408 | 0.398 | 0.932 | 1.06 | 0.716 | 0.739 |
| NCI-H2342 | 0.669 | 0.586 | 0.588 | 0.365 | 0.985 | 1.13 | 1 | 0.901 | – | – | – | – | 0.841 | 0.802 | 0.821 | 0.733 | 0.444 | 0.471 | 0.386 | 0.353 |
